Holding throughout (assay type): biochemical
Test [1] concerns the target T1, human carbonic anhydrase I (hCA I) (Homo sapiens, UniProt P00915).
T1 construct: from tissue
Put plainly: CO2 hydratase activity assay (Maren method), hCA I. As for the experimental part: (§1) Blood samples (25 ml) from healthy human volunteers were collected. They were centrifuged at 1000g for 20 min at 4 °C, and the supernatant was removed. The packed erythrocytes were washed three times with 0.9% NaCl and then were hemolyzed in cold water. The pH of the hemolysate was adjusted to 8.5 with the solid Tris base. The 25-ml hemolysate was applied to an affinity column containing y Sepharose 4B-ethylene diamine-4-isothiocyanato-benzenesulfonamide[14]. CA isozymes were then eluted with 0.1 M NaCl/25 mM Na2HPO4 (pH 6.3) and 0.1 M CH3COONa/0.5 M NaClO4 (pH 5.6), which recovered hCA I and II, respectively.
(§2) CA activity was measured by the Maren method based on the determination of the time required for the pH to decrease from 10.0 to 7.4 due to CO2 hydration. The assay solution was 0.5 M Na2CO3/0.1 M NaHCO3 (pH 10.0), and phenol red was added as the pH indicator. Carbon dioxide-hydratase activity was calculated in enzyme units (EU) with the following equation: t0 – tc/tc, where t0 and tc are the times for the pH change of the nonenzymatic and the enzymatic reactions, respectively.
(§3) The drugs were triturated in a porcelain mortar pestle. Stock solutions of both drugs were prepared in dimethyl sulfoxide (DMSO). Different concentrations of the drugs were added to the enzyme activity determination medium with a total volume of 4.2 ml. The duration (in seconds) of the colour change from red to yellow in solution was measured in a 10-ml glass tube with a diameter of 1 cm. Control cuvette activity in the absence of the inhibitor was set at 100%. All compounds were tested in triplicate at each concentration used. For each inhibitor, an activity %–[inhibitor] graph was drawn (data not shown).

Test [2] addresses T1, human carbonic anhydrase I (hCA I). Kind of test: Esterase activity assay (4-nitrophenyl-acetate), hCA I. As for the experimental part:
(§4) Blood samples (25 ml) from healthy human volunteers were collected. They were centrifuged at 1000g for 20 min at 4 °C, and the supernatant was removed. The packed erythrocytes were washed three times with 0.9% NaCl and then were hemolyzed in cold water. The pH of the hemolysate was adjusted to 8.5 with the solid Tris base. The 25-ml hemolysate was applied to an affinity column containing y Sepharose 4B-ethylene diamine-4-isothiocyanato-benzenesulfonamide[14].
(§5) The inhibitory effects of the drugs on enzyme activities were tested under in vitro conditions.

The target in test [3] is T2, human carbonic anhydrase II (hCA II) (Homo sapiens, UniProt P00918).
T2 construct: from tissue
Put plainly: CO2 hydratase activity assay (Maren method), hCA II. On the procedure: as §1, §2, §3

The target of test [4] is T2, human carbonic anhydrase II (hCA II). Kind of test: Esterase activity assay (4-nitrophenyl-acetate), hCA II. As for the experimental part:
as §4, §5

The mark [5] stands for this setting: hydratase method, enzyme purified from human erythrocytes, read-out: IC50 (hydratase) hCA I.
The mark [6] stands for this setting: esterase method, 4-nitrophenyl-acetate, 348 nm, 25 °C, read-out: IC50 (esterase) hCA I.
Setting [7] is: hydratase method, enzyme purified from human erythrocytes, read-out: IC50 (hydratase) hCA II.
Setting [8] is: esterase method, 4-nitrophenyl-acetate, 348 nm, 25 °C, read-out: IC50 (esterase) hCA II.

Structures can show the parent of a compound that is named as a salt.

This note sets out measurements from article PMC7717712, “The effects of cardiac drugs on human erythrocyte carbonic anhydrase I and II isozymes” (Journal of Enzyme Inhibition and Medicinal Chemistry, 2020).

Usually IC50 stands for the concentration at which inhibition is half-maximal. In general, Ki refers to the dissociation constant of the complex between target and ligand, obtained from inhibition or displacement.

T1 sequence (P00915 whole entry): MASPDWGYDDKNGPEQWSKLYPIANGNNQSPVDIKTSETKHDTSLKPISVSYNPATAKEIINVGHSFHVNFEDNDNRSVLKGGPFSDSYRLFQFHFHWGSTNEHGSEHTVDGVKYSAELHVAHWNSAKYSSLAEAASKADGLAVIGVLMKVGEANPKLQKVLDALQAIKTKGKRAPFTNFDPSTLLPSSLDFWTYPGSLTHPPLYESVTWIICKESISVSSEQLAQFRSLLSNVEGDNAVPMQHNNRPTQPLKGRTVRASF

Take `COc1ccc(-n2nc(C(N)=O)c3c2C(=O)N(c2ccc(N4CCCCC4=O)cc2)CC3)cc1` [Apixaban]: the half-maximal inhibitory concentration (IC50) in test [1] (setting [5]) amounted to 88.4 µM; in test [2] (setting [6]) it was 384 µM; in test [3] (setting [7]), 110 µM; in test [4] (setting [8]), 386 µM.
For `C[C@H]1O[C@@H](O[C@H]2[C@@H](O)C[C@H](O[C@H]3[C@@H](O)C[C@H](O[C@H]4CC[C@@]5(C)[C@H](CC[C@@H]6[C@@H]5C[C@@H](O)[C@]5(C)[C@@H](C7=CC(=O)OC7)CC[C@]65O)C4)O[C@@H]3C)O[C@@H]2C)C[C@H](O)[C@@H]1O` [Digoxin] the same measures were 74.9 µM, 23.1 µM, 88 µM and 32.8 µM.
Take `COc1ccc(CN2CCNCC2)c(OC)c1OC` [Trimetazidine dihydrochloride]: the IC50 in test [1] (setting [5]) was 196 µM; in test [2] (setting [6]), 112 µM; in test [3] (setting [7]), 151 µM; in test [4] (setting [8]), 112 µM.
In the case of `COc1cc2nc(N3CCN(C(=O)C4COc5ccccc5O4)CC3)nc(N)c2cc1OC` (stereo not shown) [Doxazosin mesylate], the IC50 worked out at 228 µM in test [1] (setting [5]), 303 µM in test [2] (setting [6]), 215 µM in test [3] (setting [7]) and 417 µM in test [4] (setting [8]).
Consider `COC(=O)C1=C(C)NC(C)=C(C(=O)OC(C)(C)CN(C)CCC(c2ccccc2)c2ccccc2)C1c1cccc([N+](=O)[O-])c1` (stereo not shown) [Lercanidipine hydrochloride], for which the IC50 stood at 201 µM in test [1] (setting [5]), 294 µM in test [2] (setting [6]), 159 µM in test [3] (setting [7]) and 423 µM in test [4] (setting [8]).
Take `CCOC(=O)C1=C(C)NC(C)=C(C(=O)OCC)C1c1ccccc1/C=C/C(=O)OC(C)(C)C` [Lacidipine]: the IC50 in test [1] (setting [5]) stood at 696 µM; in test [2] (setting [6]) it was 150 µM; in test [3] (setting [7]) it was 482 µM; in test [4] (setting [8]), 155 µM.
`CCN(CC)CC(=O)Nc1c(C)cccc1C` [Lidocaine HCl]: the IC50 was 19.6 µM in test [1] (setting [5]) and 2 µM in test [3] (setting [7]).
For the compound `CCCNCC(O)COc1ccccc1C(=O)CCc1ccccc1` (stereo not shown) [Propafenone], the IC50 stood at 228 µM in test [1] (setting [5]), 2.8 µM in test [2] (setting [6]), 235 µM in test [3] (setting [7]) and 3.02 µM in test [4] (setting [8]). The “Inhibition type, hCA I” value in test [2] (Lineweaver–Burk plot) is listed as “non-competitive”. Also, the Ki in test [2] (from Lineweaver–Burk plot) was 2.38 µM; in test [4] (from Lineweaver–Burk plot), 2.97 µM. The “Inhibition type, hCA II” value in test [4] (Lineweaver–Burk plot) is recorded as “non-competitive”.
In the case of `CCOc1nc2cccc(C(=O)OC(C)OC(=O)OC3CCCCC3)c2n1Cc1ccc(-c2ccccc2-c2nnn[nH]2)cc1` (stereo not shown) [Candesartan cilexetil], the half-inhibitory concentration (IC50) turned out to be 185 µM in test [1] (setting [5]), 342 µM in test [2] (setting [6]), 271 µM in test [3] (setting [7]) and 177 µM in test [4] (setting [8]).
`O=[N+]([O-])OCC(CO[N+](=O)[O-])O[N+](=O)[O-]` [Glyceryl trinitrate]: the IC50 was 220 µM in test [1] and 272 µM in test [3].
As for `CC(C)NCC(O)COc1ccc(COCCOC(C)C)cc1` (stereo not shown) [Bisoprolol hemifumarate], the IC50 in test [1] (setting [5]) was found to be 107 µM; in test [2] (setting [6]), 156 µM; in test [3] (setting [7]) it was 221 µM; in test [4] (setting [8]), 244 µM.
On to `CCOC(=O)[C@H](CCc1ccccc1)N[C@@H](C)C(=O)N1[C@H](C(=O)O)C[C@@H]2CCC[C@@H]21` [Ramipril], for which the IC50 in test [1] (setting [5]) amounted to 281 µM; in test [2] (setting [6]), 32.3 µM; in test [3] (setting [7]), 154 µM; in test [4] (setting [8]), 37.9 µM.
For the compound `COc1ccc([C@@H]2Sc3ccccc3N(CCN(C)C)C(=O)[C@@H]2OC(C)=O)cc1` [Diltiazem], the IC50 in test [1] (setting [5]) was determined as 624 µM; in test [2] (setting [6]), 232 µM; in test [3] (setting [7]), 477 µM; in test [4] (setting [8]) it was 325 µM.
Regarding `COc1cc2c(cc1OC)CC(=O)N(CCCN(C)C[C@H]1Cc3cc(OC)c(OC)cc31)CC2` [Ivabradine], the figures for the IC50 in test [2] (setting [6]) and in test [4] (setting [8]) were 107 µM and 117 µM, respectively.
Consider `COc1ccccc1OCCNCC(O)COc1cccc2[nH]c3ccccc3c12` (stereo not shown) [Carvedilol], for which the IC50 was found to be 61.2 µM in test [1] (setting [5]), 20.2 µM in test [2] (setting [6]), 79 µM in test [3] (setting [7]) and 46.4 µM in test [4] (setting [8]).
Turning to `CCCCC1=NC2(CCCC2)C(=O)N1Cc1ccc(-c2ccccc2-c2nnn[nH]2)cc1` [Irbesartan], the IC50 in test [1] (setting [5]) was 235 µM; in test [2] (setting [6]) it was 345 µM; in test [3] (setting [7]) it was 239 µM; in test [4] (setting [8]), 335 µM.
For `OC(CNCC(O)C1CCc2cc(F)ccc2O1)C1CCc2cc(F)ccc2O1` (stereo not shown) [Nebivolol hydrochloride], the IC50 in test [1] (setting [5]) was found to be 73.7 µM; in test [2] (setting [6]) it was 404 µM; in test [3] (setting [7]), 95.3 µM; in test [4] (setting [8]), 410 µM.
For `CCCCc1oc2ccccc2c1C(=O)c1cc(I)c(OCCN(CC)CC)c(I)c1` [Amiodorane hydrochloride] the same measures were 389 µM, 8.47 µM, 405 µM and 12.4 µM.
As to `COC(=O)[C@H](c1ccccc1Cl)N1CCc2sccc2C1` [Clopidogrel], the IC50 was determined as 250 µM in test [1] (setting [5]), 94 µM in test [2] (setting [6]), 364 µM in test [3] (setting [7]) and 103 µM in test [4] (setting [8]).
On to `O=[N+]([O-])O[C@@H]1CO[C@H]2[C@@H]1OC[C@@H]2O` [Isosorbide mononitrate], for which the IC50 was 160 µM in test [1], 6.08 µM in test [2], 160 µM in test [3] and 5.5 µM in test [4].
Consider `COCCc1ccc(OCC(O)CNC(C)C)cc1` (stereo not shown) [Metoprolol succinate], for which the IC50 in test [1] (setting [5]) stood at 400 µM; in test [2] (setting [6]), 319 µM; in test [3] (setting [7]) it was 168 µM; in test [4] (setting [8]), 329 µM.
In the same order, the values of `CCCCCCOC(=O)NC(=N)c1ccc(NCc2nc3cc(C(=O)N(CCC(=O)OCC)c4ccccn4)ccc3n2C)cc1` [Dabigatran etexilate] are 113 µM, 15.3 µM, 116 µM and 15.3 µM.
On to `CC(=O)Oc1cc2c(s1)CCN(C(C(=O)C1CC1)c1ccccc1F)C2` (stereo not shown) [Prasugrel], for which the half-inhibitory concentration (IC50) in test [1] (setting [5]) is 155 µM; in test [2] (setting [6]), 330 µM; in test [3] (setting [7]) it was 205 µM; in test [4] (setting [8]), 429 µM.
Take `CC(=O)Oc1ccccc1C(=O)O` [Acetylsalicylic acid]: the results for the IC50 in test [1] (setting [5]) and in test [2] (setting [6]) were 252 µM and 43 µM, respectively.
As for `C[C@H](CS)C(=O)N1CCC[C@H]1C(=O)O` [Captopril], the half-maximal inhibitory concentration (IC50) in test [1] (setting [5]) is 121 µM; in test [2] (setting [6]), 1.58 µM; in test [3] (setting [7]), 131 µM; in test [4] (setting [8]), 6.25 µM.
For `CCCSc1nc(N[C@@H]2C[C@H]2c2ccc(F)c(F)c2)c2nnn([C@@H]3C[C@H](OCCO)[C@@H](O)[C@H]3O)c2n1` [Ticagrelor] the same measures were 168 µM, 54 µM, 195 µM and 52.1 µM.
For `CN1CCc2nc(C(=O)N[C@@H]3C[C@@H](C(=O)N(C)C)CC[C@@H]3NC(=O)C(=O)Nc3ccc(Cl)cn3)sc2C1` [Edoxaban] the same measures were 94 µM, 45.5 µM, 67 µM and 34.2 µM.
For `O=C(NC[C@H]1CN(c2ccc(N3CCOCC3=O)cc2)C(=O)O1)c1ccc(Cl)s1` [Rivaroxaban] the same measures were 220 µM, 189 µM, 204 µM and 244 µM.
In the case of `CC(C)NCC(O)COc1cccc2ccccc12` (stereo not shown) [Propranolol], in test [1] (setting [5]), the IC50 came to 1.77 µM.
